Reference: patent US8558028B2, “Compound capable of inhibiting 17-beta hydroxysteriod dehydrogenase” (University of Bath of Claverton Down, priority 2007, dated 2013)

Biological target: T1, human 17β-HSD3 (Homo sapiens, UniProt P37058)
T1 construct: 293-EBNA cells stably transfected with 17β-HSD Type 3; expressed in transfected cells; host or cells: human 293-EBNA cells, stably transfected
T1 sequence (P37058 1-310): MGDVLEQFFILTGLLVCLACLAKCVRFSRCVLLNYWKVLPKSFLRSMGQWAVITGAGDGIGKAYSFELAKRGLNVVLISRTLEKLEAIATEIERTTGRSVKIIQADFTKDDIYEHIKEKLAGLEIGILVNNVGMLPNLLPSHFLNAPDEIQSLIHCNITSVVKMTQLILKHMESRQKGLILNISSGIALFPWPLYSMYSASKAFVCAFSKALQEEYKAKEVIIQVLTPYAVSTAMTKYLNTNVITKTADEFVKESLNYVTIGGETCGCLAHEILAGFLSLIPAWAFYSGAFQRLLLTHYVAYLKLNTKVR
Test: 17β-Hydroxysteroid dehydrogenase Type 3 activity in stably transfected 293-EBNA cells (TLC assay, 3H-androstenedione to testosterone)
Type: cell-based
Details: human 293-EBNA cells stably transfected with 17β-HSD Type 3, mean of at least 2 measurements, typically SD ±5%
Experimental: Assay Protocol-17β-Hydroxysteroid Dehydrogenase Type 3 Activity in the Presence of Regulatory Agents
293-EBNA cells stably transfected with 17β-HSD Type 3 were plated at 50,000 cells/well in 24 well plates in complete growth medium. After 48 hours 2-3 nM ^3H-Androstenedione in assay medium (500 ml DMEM medium with 5 ml 100×L-Glutamine, and 5 ml 7.5% sodium bicarbonate solution) was added with or without test compound at 1.5 ml/well (triplicate), and the cells incubated at 37° C.
Two hours later 1 ml medium was removed from each well and placed in a 125×16 mm glass test tube containing 25 μl of recovery solution (5000 dpm ^14C-Testosterone and 25 μg unlabelled
Testosterone). Ether (4 ml) was added and the tubes vortexed at high speed for 2×30 sec. After the samples had settled into two phases they were snap-frozen in a dry ice/methanol bath. The upper organic phase was decanted into 75×12 mm tubes and evaporated to dryness under an airstream using a sample concentrator (TECHNE) at 40° C. The samples were resuspended in ether (8 drops, then a further 3), spotted onto silica 60 F254 20 cm×20 cm TLC plates, and separated using a 4:1 v/v dichloromethane:ethyl acetate mobile phase.
After drying the plates, the major spots were marked under a UV lamp, cut out, and placed in individual scintillation vials containing 0.5 ml methanol. These were then shaken lightly and allowed to stand for 15 min before adding 10 ml of EcoScint A (scintillation fluid) to each tube along with 0.5 ml assay medium, and counted in a scintillation spectrometer (Beckman) using a program for dual [^3H/^14C] isotopes. The number of cells/well was then counted using a Coulter counter (Beckman).
The inhibitory activity of the test compounds is then assessed by calculating the amount of product formed correcting for crossover between isotope counts, recovery, dilution and non-enzymatic degradation (fmol/hr/million cells) with and without inhibitor, (% inhibition).
Compounds were tested at 10 μM for inhibition of human 17β-HSD3 with typically ˜200,000 to 300,000 human 293-EBNA cells/well.

CC(=O)Nc1ccccc1CNc1ccccc1Oc1ccc(Cl)cc1
inhibition at 10 µM: > 60%

CC(=O)Nc1ccccc1CNc1ccccc1Oc1ccc(OC(F)(F)F)cc1
inhibition at 10 µM: > 60%

CC(=O)Nc1ccccc1CNc1cc(F)ccc1Oc1ccc(Cl)cc1
inhibition at 10 µM: > 60%

CC(=O)Nc1cc2c(cc1CNc1ccccc1Oc1ccc(Cl)cc1)OCO2
inhibition at 10 µM: > 60%

COc1cc(CNc2ccccc2Oc2ccc(Cl)cc2)c(NC(C)=O)cc1OC
inhibition at 10 µM: < 20%

COc1cc(CNc2ccccc2Oc2ccc(Cl)cc2Cl)c(NC(C)=O)cc1OC
inhibition at 10 µM: < 20%

CC(=O)Nc1c(CNc2ccccc2Oc2ccc(Cl)cc2)ccc2ccccc12
inhibition at 10 µM: < 20%

CC(=O)Nc1ccc(C)cc1CNc1ccccc1Oc1ccc(Cl)cc1
inhibition at 10 µM: > 60%

CC(=O)Nc1ccc(Cl)cc1CNc1ccccc1Oc1ccc(Cl)cc1
inhibition at 10 µM: > 60%

CC(=O)Nc1ccc(Cl)cc1CNc1ccccc1Oc1ccc(Cl)cc1Cl
inhibition at 10 µM: 20 to 60%

CC(=O)Nc1ccc(Cl)cc1CNc1ccccc1Oc1ccc(OC(F)(F)F)cc1
inhibition at 10 µM: > 60%

CC(=O)Nc1ccccc1C(=O)Nc1ccccc1Oc1ccc(Cl)cc1
inhibition at 10 µM: < 20%

O=C(Nc1ccccc1C(=O)Nc1ccccc1Oc1ccc(Cl)cc1)c1ccccc1
inhibition at 10 µM: < 20%

CC(=O)N(C)c1ccccc1CNc1ccccc1Oc1ccc(Cl)cc1
inhibition at 10 µM: > 60%

CC(=O)N(C)c1ccccc1CN(C)c1ccccc1Oc1ccc(Cl)cc1
inhibition at 10 µM: 20 to 60%

CC(=O)Nc1ccccc1CN(C)c1ccccc1Oc1ccc(Cl)cc1
inhibition at 10 µM: < 20%

CC(=O)Nc1ccccc1CN(C(C)=O)c1ccccc1Oc1ccc(Cl)cc1
inhibition at 10 µM: < 20%

CC(=O)Nc1ccc(CNc2ccccc2Oc2ccc(Cl)cc2)cc1
inhibition at 10 µM: 20 to 60%

CC(=O)Nc1ccc(CNc2ccccc2Oc2ccc(Cl)cc2Cl)cc1
inhibition at 10 µM: < 20%

CC(=O)Nc1cccc(CNc2ccccc2Oc2ccc(Cl)cc2)c1
inhibition at 10 µM: 20 to 60%

CC(=O)N1CCC(Nc2ccccc2CN(C(C)=O)c2ccccc2Oc2ccc(Cl)cc2)CC1
inhibition at 10 µM: 20 to 60%

CC(=O)N1CCC(Nc2ccccc2CNc2ccccc2Oc2ccc(Cl)cc2)CC1
inhibition at 10 µM: 20 to 60%

CC(=O)N1CCC(C(=O)Nc2ccccc2CNc2ccccc2Oc2ccc(Cl)cc2)CC1
inhibition at 10 µM: > 60%

CC(=O)N1CCC(C(=O)Nc2cccc(CNc3ccccc3Oc3ccc(Cl)cc3)c2)CC1
inhibition at 10 µM: > 60%

CCNc1ccccc1C(C)Nc1ccccc1Oc1ccc(Cl)cc1 (centres unmarked)
inhibition at 10 µM: 20 to 60%

CCN(C(C)=O)c1ccccc1C(C)Nc1ccccc1Oc1ccc(Cl)cc1 (centres unmarked)
inhibition at 10 µM: > 60%

C=CCC(Nc1ccccc1Oc1ccc(Cl)cc1)c1ccccc1NC(C)=O (centres unmarked)
inhibition at 10 µM: > 60%

C=CC[C@@H](Nc1ccccc1Oc1ccc(Cl)cc1)c1ccccc1NC(C)=O
inhibition at 10 µM: 20 to 60%

C=CC[C@H](Nc1ccccc1Oc1ccc(Cl)cc1)c1ccccc1NC(C)=O
inhibition at 10 µM: > 60%

CC(=O)Nc1ccccc1C(Cc1ccccc1)Nc1ccccc1Oc1ccc(Cl)cc1 (centres unmarked)
inhibition at 10 µM: < 20%

CCCC(Nc1ccccc1Oc1ccc(Cl)cc1)c1ccccc1NC(C)=O (centres unmarked)
inhibition at 10 µM: > 60%

CC(=O)Nc1ccccc1C(C)Nc1ccccc1Oc1ccc(Cl)cc1 (centres unmarked)
inhibition at 10 µM: > 60%
